Laboratory results as given in patent publication US20090069418A1, “Compositions and Methods for the Treatment of Disorders Associated with Aberrant Vasodilation” (priority 2007, published 2009).

Experiments:
C57Bl/6 mice = assay: Middle cerebral artery occlusion in mice, infarct size (Example 2); type: in vivo; settings: for infarct size after 2-hour MCAO: vehicle 33±2%; for reduction of infarct size compared with vehicle: 10 mg/kg
Experimental: (2001) J. Neurosci., 21:7543-50). […] A small laser-Doppler probe was affixed to the skull to monitor cortical perfusion and verify vascular occlusion and reperfusion. […] After securing the filament in place, the surgical site was closed, and the animal was awakened and assessed at 2 hours of occlusion for neurological deficit using a simple neurological scoring system as follows: 0=no deficit, 1=failure to extend forelimb, 2=circling, 3=unilateral weakness, 4=no spontaneous motor activity. Mice with clear neurological deficit were re-anesthetized, laser-Doppler probe re-positioned over same site on the skull, and the occluding filament was withdrawn to allow for reperfusion. Mice were then allowed to recover and observed for 1 day. […] Slices were photographed, and infarcted (unstained) and uninfarcted (red color) areas were measured with MCID software (InterFocus Imaging Ltd, Linton, UK) and integrated across all five slices. To account for the effect of edema, the infarcted area was estimated indirectly by subtracting the uninfarcted area in the ipsilateral hemisphere from the contralateral hemisphere, and expressing infarct volume as a percentage of contralateral hemisphere. […] (2000) J. Physiol. Pharmacol., 51:655-72). […] Animals were randomly assigned to treatment groups.

epoxide hydrolase = assay: Hydrolase activity in brain tissue ex vivo, conversion of 14,15-EET to 14,15-DHET (ELISA); type: biochemical, mouse; settings: both WT and KO brain tissue
Experimental: Total 14,15-DHET in blood was measured with a commercial ELISA (Detroit R&D, Inc, Detroit, Mich.) (Koerner et al. (2007) J. Neurosci., 27:4642-4649). Briefly, plasma lipids were extracted 3 times with ethyl acetate under acidic conditions (pH 3 to 4), followed by saponification with 20% KOH. Samples were dried and resuspended in methanol, and 14,15-DHET concentration was measured according to the manufacturer's instructions. The ELISA was also used to measure hydrolase activity in brain tissue (perfused to remove blood) incubated with 1 μM 14,15-EET for 30 minutes. Brian tissue was homogenized in 4 volumes of ice-cold buffer (20 mmol/L Tris HCL pH 7.4, 0.32 mol/L sucrose, 1 mmol/L EDTA), centrifuged at 1000 g for 10 minutes, and supernatant was further centrifuged at 10,000 g for 20 minutes.

[1] = AUDA-BE and its metabolites measured in brain tissue; type: in vivo, mice
Source text: This concentration was also biologically effective in lowering blood pressure in hypertensive model (Imig et al. (2005) Hypertension 46:975-81). Therefore, in these experiments, the levels of sEH inhibitors in the blood are in the concentration range expected to inhibit the enzyme.

[2] = Pharmacokinetics of AUDA-BE and its metabolites in plasma after single intraperitoneal injection; type: in vivo, C57Bl/6 mice
Experimental: A second set of animals was injected with sesame oil alone (vehicle). […] (2002) Biochem. Pharmacol., 63:1599-608; Watanabe et al. (2006) Anal. Chim. Acta., 559:37-44). Briefly, blood samples (10 μL) were collected in 1.5 mL Eppendorf microcentrifuge tubes, weighed, and vortexed with 100 μL of purified water. […] Aliquots (10 μL) were analyzed by liquid chromatography coupled mass spectroscopy LC-MS/MS (Watanabe et al. (2006) Anal. Chim. Acta., 559:37-44; Watanabe and Hammock (2001) Anal. Biochem., 299:227-34). The concentration of sEH inhibitors were quantified in extracts using HPLC with positive mode electrospray ionization and tandem mass spectrometry. Analytes were quantified on a 5-point curve with internal standard methods. Surrogate recoveries were evaluated by quantification against the internal standard. Surrogate recoveries were 70% for all reported plasma samples, the analysis of reagent blanks, matrix spikes, and analytical replicates were used to document method stability during this study. […] Differences in infarct size, enzyme activity, and blood flow rates were analyzed with a t-test for two groups and analysis of variance with post hoc Newman-Keuls multiple range test for multiple groups. The pharmacokinetic profile was examined for goodness of fit to a noncompartmental or multicompartmental models. Pharmacokinetic parameters were then obtained by fitting the blood-concentration-time data to a non-compartmental model with the WinNonlin software (Pharsight, Mountain View, Calif., USA), as described previously (Watanabe et al. (2006) Anal. Chim. Acta., 559:37-44). The criterion for statistical significance was set at P<0.05. All values are reported as mean±s.e.m.

With `CCCCOC(=O)CCCCCCCCCCCNC(=O)NC12CC3CC(CC(C3)C1)C2` [AUDA-BE, 12-(3-adamantane-1-yl-ureido)-dodecanoic acid butyl ester] the “infarct size after 2-hour MCAO” value (C57Bl/6 mice; 10 mg/kg intraperitoneally 1 hour before (pre)) was 20±5%, the “infarct size after 2-hour MCAO” value (C57Bl/6 mice; 10 mg/kg intraperitoneally at the time of reperfusion (post)) was 16±6% and the “reduction of infarct size compared with vehicle” value (C57Bl/6 mice; 1 hour before (pre)) was 40%. The “reduction of infarct size compared with vehicle” value (C57Bl/6 mice; at the time of reperfusion (post)) was 50%, the “infarct size after MCAO” value (C57Bl/6 mice; AUDA-BE 10 mg/kg at reperfusion combined with MS-PPOH (0.5 mg/200 mL over 24 hours before MCAO, osmotic minipump)) was 34±7% and the “metabolism of 14,15-EET to 14,15-DHET in brain tissue” value (epoxide hydrolase) was “inhibited”. For the same compound, the “levels detected in homogenates of brain tissue” value ([1]; after AUDA-BE injection, methanol/chloroform extraction) was “not”, the “crossing the blood brain barrier (BBB)” value ([1]; mouse, in vivo) was “capable of crossing the blood brain barrier” and the “adverse effects during the 24-hour period after drug administration” value ([2]; 10 or 40 mg/kg doses) was “No apparent adverse effects”. For the same compound, the “detection of parent drug in plasma” value ([2]; AUDA-BE 10 mg/kg intraperitoneal) was “only the metabolites AUDA and AUBA were detected” and the “maximum concentration in plasma” value ([2]; AUDA-BE 40 mg/kg intraperitoneal, within the first hour) was 2 µmol/L.
